# Reference: patent US20240410904A1, “NON-INVASIVE MONITORING OF LIVER DISEASE TREATMENT” (INVENTIVA, priority 2023, published 2024)
# Experiments:
# [1] = tested on: adult patients diagnosed with highly active, non-cirrhotic NASH; assay: NATIVE phase 2b trial of lanifibranor, liver histology response at Week 24; format: in vivo, human; conditions: once daily orally, 24 weeks
# From the text: Patients were eligible for inclusion if they were 18 years of age or older and had non-cirrhotic NASH (the diagnosis of which required a Steatosis, Activity, Fibrosis [SAF] grade of 1 or higher for steatosis, hepatocellular ballooning and lobular inflammation on liver biopsy). A score of 3 or higher on the SAF-A (the activity part of the SAF scoring system that incorporates the scores for hepatocellular ballooning and lobular inflammation) was also a criterion for eligibility. Patients with stage F4 fibrosis, classified according to the criteria of both the SAF and NASH Clinical Research Network (NASH CRN) were excluded from the study. Patients were randomly assigned in a 1:1:1 ratio to receive 800 or 1200 mg lanifibranor or placebo once daily for 24 weeks. Liver biopsy was obtained at baseline and at the end of treatment. The primary end point of the NATIVE study was defined as a decrease of at least 2 points from baseline to Week 24 (end of treatment) in the SAF-A score and no worsening of fibrosis. Secondary histologic end points included resolution of NASH (defined as a ballooning grade of 0 and a lobular inflammation grade of ≤1) and no worsening of fibrosis; improvement in fibrosis of at least 1 stage and no worsening of NASH (i.e., no worsening in either steatosis, ballooning, or lobular inflammation); Nonalcoholic Fatty Liver Disease Activity Score (NAS) improvement (defined as a decrease of ≥2 points from baseline to week 24 in the NAS) and no worsening of fibrosis; resolution of NASH and an improvement in fibrosis stage of at least 1 (as a composite end point); change in scores for the components of the SAF and NASH CRN scoring system (steatosis, activity, inflammation, ballooning, and fibrosis); and change in the modified Ishak score. Non-histologic secondary endpoints included changes in a panel of serum biomarkers related to metabolism, inflammation tissue injury and fibrosis. Patients receiving lanifibranor 800 or 1200 mg per day were pooled and those with pre- and post-treatment liver biopsies were selected (n=142). Post-treatment biopsies were considered if they occurred within 14 days following last lanifibranor intake. The following histological endpoint according to NASH-CRN criteria was considered: NASH resolution without worsening of fibrosis (E2). In the NATIVE trial, from February 2017 through July 2019, 247 patients were randomly assigned to receive 1200 mg of lanifibranor (N=83), 800 mg of lanifibranor (N=83), or placebo (N=81) orally once daily for 6 months. A total of 228 patients completed the trial, 77 in each lanifibranor group and 74 in the placebo group. Reasons for discontinuation of the trial regimen have been reported elsewhere. Finally, among the 154 patients treated with lanifibranor at both doses, 142 patients (N=70 and N=72 patients treated with 800 or 1200 mg per day, respectively) presented with pre- and post-treatment liver biopsies within the time frame required for the present work and were included in the analysis population for signature development.
# [2] = tested on: adult patients diagnosed with highly active, non-cirrhotic NASH; conditions: background statement, cited from earlier work
# [3] = 800 and 1200 mg per day pooled, analysis population N=142
smiles,measurement,setting,value
"O=C(O)CCCc1cc2cc(Cl)ccc2n1S(=O)(=O)c1ccc2ncsc2c1 [lanifibranor, 4-[1-(1,3-benzothiazol-6-ylsulfonyl)-5-chloroindol-2-yl]butanoic acid]","Resolution of NASH without worsening of liver fibrosis (E2), number of patients","[1]; 800 mg per day, N=70",27 patients
same,"Resolution of NASH without worsening of liver fibrosis (E2), percentage of patients","[1]; 800 mg per day, N=70",39%
same,"Resolution of NASH without worsening of liver fibrosis (E2), number of patients","[1]; 1200 mg per day, N=72",36 patients
same,"Resolution of NASH without worsening of liver fibrosis (E2), percentage of patients","[1]; 1200 mg per day, N=72",50%
same,"Resolution of NASH without worsening of liver fibrosis (E2), number of patients",[1]; [3],63 patients
same,"Resolution of NASH without worsening of liver fibrosis (E2), percentage of patients",[1]; [3],44%
same,"Percentage of patients with a decrease of at least 2 points in the SAF-A score without worsening of fibrosis, compared to placebo","[2]; daily dose of 1200 mg, patients with active NASH",significantly higher
same,"Secondary endpoints (NASH resolution and fibrosis improvement, NASH resolution without worsening of fibrosis, improvement of fibrosis without worsening of NASH; NASH-CRN), compared to placebo",[2]; lanifibranor groups,more favorable than placebo
